Patent US10071966B2, “Drug for inhibiting aggregation of proteins involved in diseases linked to protein aggregation and/or neurodegenerative diseases” (Ludwig-Maximilians-Universität München, priority 2008, dated 2018)
“Also recorded” adds a separate entry of the source. Read-outs that look alike come from different tables or passages of the source.

Experiments:
[1] = system: RML scrapie; assay type: in vivo, C57Bl6 mice; conditions: i.c. RML scrapie
[2] = system: PrPSc in spleen (RML scrapie); assay type: in vivo, C57Bl6 mice; conditions: i.p. RML scrapie; 25 μL 100 mM i.p. 14 days then 50 mg/kg oral; day 35 post infection
[3] = system: PrP^Sc accumulation in brain (RML scrapie); assay type: in vivo, C57BL/6 mice; conditions: brain at 120 dpi
[4] = system: PrP^Sc accumulation in spleen (RML scrapie); assay type: in vivo, C57BL/6 mice; conditions: i.p. infection; 34 days of 1 mg compound per day in DMSO+peanut butter; spleen at 35 dpi
[5] = system: RML scrapie; assay type: in vivo, C57BL/6 mice
[6] = system: RML scrapie; assay type: in vivo, C57BL/6 mice; conditions: different times and schedules of treatment; p<0.01
[7] = system: PrPSc in brain (RML scrapie)
[8] = Pharmacokinetic analysis of anle138b, compound in brain and serum by LC-MS (Example 15); conditions: single dose, non-infected mice
[9] = molecular target: α-synuclein (Homo sapiens, UniProt P37840); assay: Inhibition of the formation of α-synuclein aggregates (intermediate II oligomers), confocal single molecule spectroscopy (Example 16); assay type: biochemical
[10] = 5 mg per day orally in DMSO+peanut butter from 80 or 120 dpi
[11] = i.c. RML scrapie, treatment from day 80

Brc1cccc(-c2cc(-c3ccc4c(c3)OCO4)n[nH]2)c1 [anle138b, 3-(1,3-Benzodioxol-5-yl)-5-(3-bromophenyl)-1H-pyrazole]
effect of treatment on survival time ([1]; daily i.p. for 14 days from day 80 post infection): significantly prolongs the survival times | average survival time prolonged by, in comparison to DMSO vehicle group ([1]; i.p. 25 μL per day of 100 mM compound for 14 days from day 80 post infection): 14.9 days | PrPSc deposits in spleen tissue (immunohistology) [2]: reduced | splenic PrPSc level (immunoblot / dot blot) compared to vehicle-treated mice [2]: strong reduction in PrPSc levels; also recorded: decreases significantly | Inhibition [%] of PrPSc accumulation in brain, protocol a ([3]; 1 mg compound per day orally in DMSO+peanut butter from 80 dpi, relative to DMSO-treated (0%) and start of treatment (100%)): 69% | PrPSc accumulation in brain, dose dependence ([3]; different amounts orally in DMSO+peanut butter from 80 dpi): reduced PrP^Sc accumulation in brain in a dose-dependent manner | Inhibition [%] of PrPSc accumulation in spleen, protocol c [4]: 62% | PrPSc accumulation in brain (stained sections, brain homogenates) [5, 10]: strongly reduced | apoptotic cells in the cerebellum (neuronal cell death) [5, 10]: inhibition of neuronal cell death | time for which weight loss is prevented ([5]; 5 mg per day orally, treatment from 80 dpi onwards): ~100 days | time for which weight loss is inhibited ([5]; 5 mg per day orally, treatment from 120 dpi): ~70 days | survival times after challenge with RML scrapie [6]: significantly prolonged the survival times | Inhibition [%] of PrPSc accumulation in brain, protocol b ([7]; 0.84 mg per day i.p. 14 days from 80 dpi then 2x5 days 1 mg by gavage, brain at 106 dpi, relative to DMSO-treated (0%) and start of treatment (100%)): 108% | change of relative PrPSc levels in brain compared to untreated control at day 80 [7, 11]: slighty decreased | pathological changes / apoptotic cells in cerebellar granule cell layer (H&E stained brain slices) [7, 11]: reduction of pathological changes | survival time until terminal stage of scrapie infection ([7]; i.c. RML scrapie, treatment from day 80, two anle138b mice additionally fed compound in peanut butter day 109 to 136): longer survival times | brain penetration [8]: good brain penetration | oral bioavailability [8]: good oral bioavailability

FCCn1nc(-c2ccc3c(c2)OCO3)cc1-c1cccc(Br)c1 [sery363a]
reduction of PrPC accumulation compared to DMSO-treated controls ([3]; 3 mg compound per day orally in DMSO+peanut butter from 80 dpi): 35%

Nc1ccc(-c2cc(-c3cccc(Cl)c3)n[nH]2)cc1 [sery383]
reduction of PrPC accumulation compared to DMSO-treated controls ([3]; 1 mg compound per day orally in DMSO+peanut butter from 80 dpi): 30% | inhibition of alpha-synuclein aggregation [9]: highly active | Intermediate II (formation of intermediate II oligomers in comparison to controls without compound) ([9]; compound 10 μM, aggregation induced by DMSO and 10 μM FeCl3): <5%
